Experimental data reported in PubChem BioAssay AID1963862 (Molecular Pharmacology Branch, DTP, NCI, 2024).

Tested on: KRAS patient-derived spheroids with HUVEC/MSC, viability
Assay: Anticancer human tumor 941728-121-R-J1-PDC patient-derived lung adenocarcinoma cell line growth inhibition [KRAS2]
Details: for viability, T/C: stronger effect = lower value; active means viability on the fitted dose curve at most 10% of control; inactive means the rest
Outline: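 Combination screen of spheroid viability in tumor-cell co-cultures with endothelial (HUVEC) and mesenchymal stem cell stroma. Each agent was tested in half-log dilutions, topping at clinical Cmax or at 10 microM without a known Cmax.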
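Further: spheroids exposed to agents for seven days before readout.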

CC1COCCN1c1cc(-c2ccnn2C)c2ccnc(-c3ccn[nH]3)c2n1 (centres undefined) + C=CC(=O)N1CCN(c2nc(OCC3CCCN3C)nc3c2CCN(c2cccc4cccc(C)c24)C3)CC1CC#N
< 0.01 µM: IC50 (curve of first compound, second compound 0.0316 µM) | IC50 (curve of first compound, second compound 0.1 µM) | IC50 (curve of first compound, second compound 0.316 µM) | IC50 (curve of first compound, second compound 1 µM) | IC50 (curve of first compound, second compound 3.16 µM)
inactive: viability, T/C (second compound 0.0316 µM, first compound 0.01 µM) 26.5% | viability, T/C (second compound 0.0316 µM, first compound 0.0316 µM) 24.8% | viability, T/C (second compound 0.0316 µM, first compound 0.1 µM) 19.9% | viability, T/C (second compound 0.0316 µM, first compound 0.316 µM) 19.6% | viability, T/C (second compound 0.0316 µM, first compound 1 µM) 16.9% | viability, T/C (second compound 0.0316 µM, first compound 3.16 µM) 14.6% | viability, T/C (second compound 0.1 µM, first compound 0.01 µM) 26.5% | viability, T/C (second compound 0.1 µM, first compound 0.0316 µM) 28.3% | viability, T/C (second compound 0.1 µM, first compound 0.1 µM) 19.9% | viability, T/C (second compound 0.1 µM, first compound 0.316 µM) 18.5% | viability, T/C (second compound 0.1 µM, first compound 1 µM) 16.6% | viability, T/C (second compound 0.1 µM, first compound 3.16 µM) 13.3% | viability, T/C (second compound 0.316 µM, first compound 0.01 µM) 23% | viability, T/C (second compound 0.316 µM, first compound 0.0316 µM) 22.7% | viability, T/C (second compound 0.316 µM, first compound 0.1 µM) 25.9% | viability, T/C (second compound 0.316 µM, first compound 0.316 µM) 17.6% | viability, T/C (second compound 0.316 µM, first compound 1 µM) 16.1% | viability, T/C (second compound 0.316 µM, first compound 3.16 µM) 12.8% | viability, T/C (second compound 1 µM, first compound 0.01 µM) 22.9% | viability, T/C (second compound 1 µM, first compound 0.0316 µM) 24.2% | viability, T/C (second compound 1 µM, first compound 0.1 µM) 19% | viability, T/C (second compound 1 µM, first compound 0.316 µM) 18.1% | viability, T/C (second compound 1 µM, first compound 1 µM) 18.9% | viability, T/C (second compound 1 µM, first compound 3.16 µM) 15.4%
active: viability, T/C (second compound 3.16 µM, first compound 0.01 µM) 2.14% | viability, T/C (second compound 3.16 µM, first compound 0.0316 µM) 10.7% | viability, T/C (second compound 3.16 µM, first compound 0.1 µM) 2.17% | viability, T/C (second compound 3.16 µM, first compound 0.316 µM) 1.73% | viability, T/C (second compound 3.16 µM, first compound 1 µM) 6.37% | viability, T/C (second compound 3.16 µM, first compound 3.16 µM) 6%

O=C(c1cc(Cc2n[nH]c(=O)c3ccccc23)ccc1F)N1CCN(C(=O)C2CC2)CC1
inactive: viability, T/C (compound 0.1 µM) 96.4% [middle of 5 runs] | viability, T/C (compound 0.316 µM) 92.6% [middle of 5 runs] | viability, T/C (compound 10 µM) 82% [middle of 5 runs]
> 10 µM: IC50 (curve of compound)
